In experiment [1] the test system is blood-brain barrier (BBB). Briefly: Microcatheter 3% EA-mediated delivery of CD3-positive CAR T cells, confocal imaging (Experiment 26). The class given is in vivo. The settings on record: microcatheter 3% EA + 2×10^6 CAR T cells, normal rat. The protocol:
Similarly, the efficacy of microcatheter placement and infusion of an optimal 3% EA-mediated delivery of CAR T cells is validated. The CAR T cells are human CD3 positive, which can be analyzed by immunohistochemistry staining using rabbit anti-human CD3 primary antibody and Alexa Fluor 647-labeled goat anti-rabbit IgG secondary antibody to detect CD3 expression on the surface of CAR T cells by confocal imaging, as shown in FIG. 19. […] The confocal imaging staining is performed to detect the spreading of CD3-positive CAR T cells. The blue color comes from the DAPI-stained nuclei. The red color is Alexa Fluor 647-labeled […], as only the human CAR T cells are CD3 positive.

Experiment [2] concerns blood-brain barrier (BBB). Briefly: Comparison of intracardiac EA and NEO100 mediated BBB opening, EB dye (Comparative Experiment 19, Experiment 20). The experiment is classed as in vivo, mice. The settings on record: mice. The protocol:
Intracardiac injected various concentrations of EA (at 25%, 20%, 3%, 0.3%, and 0.1%, 0.03%, 0.01%) and NEO100 (at 25%, 20%, 3%, 0.3%, and 0.1%, 0.03%, 0.01%) are used on mice to test their effects on BBB disruption and evaluated by the observation of extravasated EB dye in the brain tissues. […] Photographs of the perfused brain tissues from the experimental mice treated with […] EA and NEO100 are taken for observation and comparison.
The same procedure as experiment 19 was performed with IA 0.3% NEO100 with 2% EB dye solution.

In experiment [3] the test system is blood-brain barrier (BBB). The settings on record: group B: 300 μl 3% EA infused in 5 seconds, room temperature.
The test system of experiment [4] is blood-brain barrier (BBB). The protocol:
Photographs of the rats in the prone and supine positions are taken for observation and further analysis.
Experimental rats are treated with varying concentrations of IA EA (in room temperature, 300 μl 5%, 3%, and 1% EA infused slowly in 1 minute, respectively) and are applied through the arterial catheter placed into the left internal carotid artery.
Experimental rats are treated with varying concentrations of IA EA (in room temperature, 300 μl 0.3%, 0.1%, and 0.01% EA infused slowly in 1 minute, respectively). They are applied through the arterial catheter placed into the left internal carotid artery.
The rapid visualization of the extravasated EB/albumin conjugate distribution after IA catheter delivery of 3% EA by fluorescence from EB dye by confocal microscopy is performed.
The fluorescence from EB dye permits the rapid visualization of extravasated EB/albumin conjugate distribution after IA catheter delivery of 3% EA. An untreated rat group is used as a control. IA 3% EA+2% EB solution treatment is used as the testing group.
The photographs of cryostatic brain sections from an untreated rat are stained with DAPI to illustrate the background nuclear staining under confocal imaging, respectively. The photo-/micrographs and magnified confocal images of the brain from the rat treated with IA 3% EA+2% EB solution are obtained for studies and comparison. The micrograph of the whole brain section is scanned by confocal microscopy to obtain the confocal images. The confocal images are further enlarged for observation.

Experiment [5] has as its system brain tissues. The settings on record: IA 0.3% ethyl alcohol vs normal untreated mouse. The protocol: Ultrathin sections of the brains previously processed with Pelco BioWave Pro (Pelco, Fresno, CA USA) are cut at 99 nm and collected on 200-mesh copper grids. The grids are post-stained in uranyl acetate (0.2%) and filtered for 15 min. Grids are further stained with lead citrate and filtered for 5 min. The Tecnai Spirit G2TEM (Nanoscience Initiative, Nicholas Terrace, New York, USA) with an installed Mega View camera is used to image the samples. The micrographs are illustrated in FIG. 5 of the drawings. The scale bar is 2 μm.

Experiment [6] concerns blood-brain barrier (BBB). Briefly: Intraarterial EA-mediated antibody delivery into normal rat brain via left internal carotid artery catheter (Experiments 15-17). The class given is in vivo, rats. The protocol: The experimental rat is treated with IA 3% EA+50 μg goat anti-rat IgG (H+L) ALEXA FLUOR® 647 (ab150167, Cambridge, MA USA) via the left internal carotid artery catheter. The micrograph of the whole brain section is scanned with a fluorescence microscope. Two sections from the right and left hemispheres of the brain are selected respectively and are enlarged with a magnification of 63×. The scale bar used is 50 μm. The images of the left and right hemispheres, and the enlarged sections are studied.
EA-mediated antibody (goat anti-rat IgG (H+L) ALEXA FLUOR® 647) brain entry via catheter placement through the internal carotid artery (left) are tested. The cryosection photographs and images from the confocal microscope after EA treatment are taken for studies. An EA-untreated group is used as a control group. IA antibody [50 μg goat anti-rat IgG (H+L) ALEXA FLUOR® 647] and IA 3% EA+antibody [50 μg goat anti-rat IgG (H+L) ALEXA FLUOR® 647 are the two comparison groups.
An ALEXA FLUOR® 647 anti-human IgG antibody was applied via IA catheter delivery to rule out the nonspecific binding to the experimental rats. 3% EA-mediated antibody brain entry via catheter placement through the internal carotid artery (left) is tested and compared. The cryosection photographs and images from the confocal microscope after EA treatment are taken for studies. An EA-untreated group is used as a control group. IA antibody [50 μg ALEXA FLUOR® 647 anti-human IgG antibody (ab201841); and IA 3% EA+50 μg ALEXA FLUOR® 647 anti-human IgG antibody (ab201841, Cambridge, MA USA) are the two comparison groups.

The test system of experiment [7] is brain tumor. The settings on record: IA ethyl alcohol + IA or IV Anti-PD-1, mice. The source says: The standard detailed protocol is followed. Primary antibodies used are FITC-conjugated Armenian hamster anti-mouse PD-1 (11-9985-82, ThermoFisher Scientific, San Diego, CA USA), and rat anti-mouse PD-1 (BE0146, Bio X Cell, West Lebanon, NH USA). The secondary antibody is ALEXA FLUOR® 647 goat anti-rabbit (ab150083, Abcam).

The test system of experiment [8] is blood-brain barrier (BBB). The settings on record: 300 μl 3% EA via microcatheter in left ICA, IV 2% EB at 30 min intervals, rats. The text has this: Evans blue (EB) dye is used as the non-BBB permeable substance.
In this experiment, the microcatheter is placed in the left internal carotid artery (ICA). The left internal carotid artery (ICA) leads to the left hemisphere of the brain. (That is, the selected intracerebral artery is the left internal carotid artery (ICA); and the target area is the left hemisphere of the brain.)

The results in this text go back to patent publication US12539281B2 (priority 2021, dated 2026).

Each structure is given as a SMILES string.

In the case of `CCO` [ethyl alcohol], the “delivery of CAR T cells into brain tissue” value in experiment [1] was “can deliver BBB-impermeable CAR T cells into normal rat brain tissue”. For the same compound, in experiment [2] (IA 0.1% EA), the “pattern of BBB opening, coronal section” value was “homogenized BBB opening”. For the same compound, the “dose response of BBB disruption” value in experiment [2] (intracardiac 25%, 20%, 3%, 0.3%, 0.1%, 0.03%, 0.01%) was “dose-reverse response”. For the same compound, the “EB (induced BBB disruption)” value in experiment [3] is listed as “observed”. Further, the “extravasated EB at the lowest concentration of EA” value in experiment [4] (300 μl 0.01% EA in 1 minute via left ICA catheter, rats) was “can still be visualized in the left hemisphere of the brain tissue”. Further, the “extravasated EB in coronal sections” value in experiment [4] (300 μl 5%, 3%, and 1% EA in 1 minute via left ICA catheter, 2 hours after, rats) is on record as “spreading out homogeneously through almost the whole section of the left hemisphere of the brain”. In addition, the “autofluorescence from EB/albumin by confocal microscopy” value in experiment [4] (IA 3% EA+2% EB, whole brain section, left hemisphere, rat) is reported as “massive spreading of autofluorescence”. The “location of extravasated EB” value in experiment [4] (left-side IA catheter, EA+2% EB, Fisher 344 rats) was “inside the left vitreous humor, but not inside the right”. For the same compound, in experiment [5], the “ultrastructure of brain tissues (TEM)” value is “many open spaces”. The “antibody staining (pink color) in brain, confocal” value in experiment [6] (IA 3% EA+50 μg ALEXA FLUOR 647 anti-human IgG antibody, rats) is “even and widely spread pink color”; in experiment [6] (IA 3% EA+50 μg goat anti-rat IgG (H+L) ALEXA FLUOR 647, rats) it was “even and widely spread pink color”. The “fluorescence of labeled antibody, left hemisphere vs right hemisphere” value in experiment [6] (IA 3% EA+50 μg goat anti-rat IgG (H+L) ALEXA FLUOR 647 via left ICA catheter, rat) was “more dense fluorescence than the right hemisphere”. Also, the “anti-PD-1 antibody brain tumor entry” value in experiment [7] was “can mediate checkpoint inhibitor anti-PD-1 antibody brain tumor entry”. The “time until disrupted BBB is restored” value in experiment [8] is given as “around 2 hours”.
